The values that follow come from patent US20110110923A1, “FISH ASSAY FOR EML4 AND ALK FUSION IN LUNG CANCER” (The Brigham and Women's Hospital, Inc., priority 2008, published 2011).

Entries after “also recorded” stand apart in the source; their conditions may differ.

Data set [1] has as its system Akt, STAT3 and ERK 1/2 phosphorylation in H3122. Briefly: Western blot of downstream signalling, H3122. Type of data set: cell-based, human. The following applies: H3122, 0.1 μM, 6 hours. As to the method: (§1) The supernatant was used for subsequent procedures. […] Immunoblotting was performed according to the antibody manufacturers' recommendations. […] Total ERK1/2 and phospho-ERK1/2 (pT185/pY187) antibodies were purchased from Biosource International (Camarillo, Calif.).
A general note: In western blotting, separated proteins are transferred to a membrane and probed.

The subject of data set [2] is other cell lines (H2228, DFCI032, PC-9, A549). Briefly: Growth arrest / apoptosis in the other NSCLC cell lines. Type of data set: cell-based, human. The following applies: other cell lines than H3122. Here is the method: (§2) Growth and inhibition of growth was assessed by methoxy-tetrazolium salt (MTS) assay. This assay, a colorimetric method for determining the number of viable cells, is based on the bioreduction of 3-(4,5-dimethylthiazol-2-yl)-5-(3-carboxymethoxyphenyl)-2-(4-sulfophenyl)-2H-tetrazolium (MTS) by cells to a formazan product that is soluble in cell culture medium, can be detected spectrophotometrically. NSCLC cells were exposed to treatment for 72 hours and the number of cells used per experiment determined empirically. All experimental points were set up in six to twelve wells and all experiments were repeated at least three times. […] The curves were fitted using a non-linear regression model with a sigmoidal dose response.
as §1
Cells were collected and fixed in 40% ethanol for at least 1 hour (or until ready for the experiment) at 4° C. […] The stained cells were then analyzed for DNA content in a Becton Dickinson fluorescence-activated cell sorter using both ModFit (Verity Software House, Topsham, Me.) and CellQuest (Becton Dickinson, San Jose, Calif.) programs.

In data set [3] the test system is Akt, STAT3 and ERK 1/2 phosphorylation in DFCI032. The data set can be described thus: Western blot of downstream signalling, DFCI032. The following applies: DFCI032, 0.1 μM, 6 hours. Type of data set: cell-based, human. As to the method:
as §1

The conditions of data set [4]: in vivo; cited from earlier work.
The subject of data set [5] is DFCI032 cell line (EML4-ALK variant 1). Briefly: MTS cell growth assay, DFCI032. The note with it: Homo sapiens, read-out: IC50, growth inhibition, DFCI032, 72 hours. It is filed as cell-based. Here is the method: as §2
A general note: Formazan colour is commonly taken as a measure of viable cells.

Data set [6] has as its system Akt, STAT3 and ERK 1/2 phosphorylation in H2228. Briefly: Western blot of downstream signalling, H2228. It is filed as cell-based, human. The following applies: H2228, 0.1 μM, 6 hours. Here is the method:
as §1

Data set [7] relates to H2228 cell line (EML4-ALK variant 3). Briefly: MTS cell growth assay, H2228. Type of data set: cell-based. The note with it: Homo sapiens, NCI-H2228, read-out: IC50, growth inhibition, H2228, 72 hours. Here is the method: as §2
The subject of data set [8] is H3122 cell line (EML4-ALK variant 1). The data set can be described thus: MTS cell growth assay, H3122. It is filed as cell-based. The following applies: Homo sapiens, NCI-H3122, read-out: IC50, growth inhibition, H3122, 72 hours. Here is the method:
as §2

The next data set has as its system Karpas 299 cells. The note with it: NPM-ALK positive lymphoma cells; cited from earlier work.
For data set [9], the system named is PC-9 cell line (EGFR delE746_A750). Briefly: MTS cell growth assay, PC-9. Type of data set: cell-based, human. The note with it: PC-9, 72 hours. The text has this:
All experimental points were set up in six to twelve wells and all experiments were repeated at least three times. […] The curves were fitted using a non-linear regression model with a sigmoidal dose response.

Data set [10] concerns A549 cell line (K-Ras G12S). Briefly: MTS cell growth assay, A549. It is filed as cell-based, human. The following applies: A549, 72 hours. As to the method:
as §2

In another data set the test system is H3122 cell line. Briefly: Apoptosis by FACS (sub G1) and Western blot for cleaved PARP, H3122. It is filed as cell-based, human. The following applies: H3122, 0.1 μM, 72 h. Here is the method:
as §1
Cells were collected and fixed in 40% ethanol for at least 1 hour (or until ready for the experiment) at 4° C. The fixed cells were treated with 0.5 mL of […] RNase A for 45 minutes at 37° C. and stained with […] propidium iodide (in 38 mM sodium citrate) for at least 30 minutes at room temperature in the dark. The stained cells were then analyzed for DNA content in a Becton Dickinson fluorescence-activated cell sorter using both ModFit (Verity Software House, Topsham, Me.) and CellQuest (Becton Dickinson, San Jose, Calif.) programs.
A general note: In flow cytometry, cells or beads pass a laser one at a time.

The subject of data set [11] is Akt, STAT3 and ERK 1/2 phosphorylation in PC-9. Briefly: Western blot of downstream signalling, PC-9. Type of data set: cell-based, human. The following applies: PC-9, 0.1 μM, 6 hours. As to the method: as §1
Data set [12] relates to EML4-ALK fusion transformed Ba/F3 models. The following applies: original study describing the EML4-ALK fusion gene; cited from earlier work.
The target of another data set is ALK kinase (Homo sapiens, UniProt Q9UM73). The note with it: initial studies, Li et al.; read-out: IC50 (ALK inhibitors); cited from earlier work.
Sequence of ALK kinase (Q9UM73 19-1620): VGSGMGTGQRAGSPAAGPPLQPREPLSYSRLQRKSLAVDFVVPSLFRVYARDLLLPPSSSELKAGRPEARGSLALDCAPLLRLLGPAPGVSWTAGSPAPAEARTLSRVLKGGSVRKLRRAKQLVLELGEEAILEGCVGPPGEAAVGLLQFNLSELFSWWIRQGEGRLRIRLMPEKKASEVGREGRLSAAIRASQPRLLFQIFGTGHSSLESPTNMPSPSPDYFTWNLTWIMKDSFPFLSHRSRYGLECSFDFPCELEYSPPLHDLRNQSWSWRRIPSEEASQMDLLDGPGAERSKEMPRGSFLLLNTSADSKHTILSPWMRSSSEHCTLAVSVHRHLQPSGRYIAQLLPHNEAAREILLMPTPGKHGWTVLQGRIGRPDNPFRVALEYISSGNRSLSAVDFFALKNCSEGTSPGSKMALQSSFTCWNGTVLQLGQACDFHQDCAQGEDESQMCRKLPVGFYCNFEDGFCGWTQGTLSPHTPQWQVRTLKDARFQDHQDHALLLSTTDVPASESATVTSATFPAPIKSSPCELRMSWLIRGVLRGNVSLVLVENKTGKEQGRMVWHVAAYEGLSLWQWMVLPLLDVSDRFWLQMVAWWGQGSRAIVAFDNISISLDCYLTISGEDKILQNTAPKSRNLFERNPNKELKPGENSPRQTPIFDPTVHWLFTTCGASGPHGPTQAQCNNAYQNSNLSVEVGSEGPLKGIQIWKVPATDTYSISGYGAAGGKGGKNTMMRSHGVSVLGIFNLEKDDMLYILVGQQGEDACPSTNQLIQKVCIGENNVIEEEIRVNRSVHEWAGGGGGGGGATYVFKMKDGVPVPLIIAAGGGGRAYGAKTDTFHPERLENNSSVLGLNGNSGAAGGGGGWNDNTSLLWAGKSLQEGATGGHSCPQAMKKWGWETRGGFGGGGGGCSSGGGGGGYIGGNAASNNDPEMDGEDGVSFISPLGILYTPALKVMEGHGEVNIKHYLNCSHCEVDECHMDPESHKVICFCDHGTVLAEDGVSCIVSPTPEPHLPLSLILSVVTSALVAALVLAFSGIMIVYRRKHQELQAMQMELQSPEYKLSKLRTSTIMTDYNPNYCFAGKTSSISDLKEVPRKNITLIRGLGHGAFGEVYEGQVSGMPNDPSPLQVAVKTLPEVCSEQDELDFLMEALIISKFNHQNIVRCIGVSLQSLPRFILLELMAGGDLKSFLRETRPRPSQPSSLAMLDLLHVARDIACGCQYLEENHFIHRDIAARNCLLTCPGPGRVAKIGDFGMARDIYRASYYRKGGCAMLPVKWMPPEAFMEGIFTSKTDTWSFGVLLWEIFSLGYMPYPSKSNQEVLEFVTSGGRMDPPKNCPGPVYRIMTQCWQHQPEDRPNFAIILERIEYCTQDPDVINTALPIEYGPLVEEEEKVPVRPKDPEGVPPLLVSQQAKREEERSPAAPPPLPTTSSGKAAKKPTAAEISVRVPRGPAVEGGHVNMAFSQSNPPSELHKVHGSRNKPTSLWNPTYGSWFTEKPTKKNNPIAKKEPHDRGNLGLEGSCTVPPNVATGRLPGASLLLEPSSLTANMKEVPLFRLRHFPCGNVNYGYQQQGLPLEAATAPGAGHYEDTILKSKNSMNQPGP

Broadly, the IC50 is the midpoint of a concentration-inhibition curve. Consider `COc1cc(N2CCC(N3CCN(C)CC3)CC2)ccc1Nc1ncc(Cl)c(Nc2ccccc2S(=O)(=O)C(C)C)n1` [NVP-TAE684], for which the “Akt, STAT3 and ERK 1/2 phosphorylation” value in data set [1] was “substantial inhibition; also recorded: decrease”; in [3], “unchanged; also recorded: no inhibition”; in data set [6] it was “some but not complete inhibition; also recorded: only partial inhibition; also recorded: decrease”; in [11], “unchanged”. Also, the “growth arrest or apoptosis” value in [2] is on record as “No growth arrest or apoptosis”. For the same molecule, in data set [4], the bioavailability result is given as “good”. The IC50 in [5] was 1000 to 10000 nM; in data set [7] it was 1000 to 10000 nM; in data set [8], about 10 nM; in the data set with Karpas 299 cells, 2 to 5 nM. The “growth: resistance to the inhibitor” value in data set [9] and in data set [10] was “resistant” each time. Also, the “89 kDa cleaved PARP product (Western blot)” value with H3122 cell line is on record as “observed”. The “apoptosis (FACS sub G1 fraction / cleaved PARP)” value is “significant apoptosis” in the data set with H3122 cell line and “Significant apoptosis” in the data set with H3122 cell line (listed as TAE-684).
For the molecule `C[C@@H](Oc1cc(-c2cnn(C3CCNCC3)c2)cnc1N)c1c(Cl)ccc(F)c1Cl` [PF-02341066], the bioavailability entry in data set [4] was “good”. Also, the IC50 with Karpas 299 cells was 26 nM.
Consider `COc1cc2ncnc(Nc3ccc(O)c(Br)c3)c2cc1OC` [WHI-P154], for which, in data set [12], the growth inhibition entry was “growth inhibition”. Besides, the IC50 at ALK kinase was about 5000 nM.
